Where two headings read alike, the source gives them in different places.
Columns and labels:
CD1 mice = details: CD1, mouse, in vivo, ip
Procedure: To define the acute toxicity of Sag and Sag NO2, the test compound was administered i.p. to CD1 mice at the single doses of 250, 500, 1000 and 1500 mg/Kg. Control groups were treated i.p. with vehicle (pure DMSO; 100 μl/mouse). Each group consisted of 10 mice. Mortality was evaluated every hour for the first 4 hours and then every 10 hours until 14 days after dosing.

B16 cells [1] = assay: MBP expression by cell-based ELISA, B16; set-up: species or system mouse; details: 18.8 μM, 24 h
Text: A slightly modified method for cell-based ELISA (cELISA) by Versteeg (Versteed et al., 2000) was used to measure the expression of galactocerebroside, glial fibrilar acidic protein (GFAP), myelin basic protein (MBP), cyclin D3, p53 and p-AKT. Briefly, at the end of cultivation period cells were fixed in 4% paraformaldehyde, endogenous peroxydase was quenched with 1% H2O2 in PBS containing 0.1% Triton X-100 (PBST), and unspecific binding of antibodies blocked with PBST solution containing 10% FCS. […] The absorbance at 450 nm was measured in an automated microplate reader 15 min after incubation with peroxydase substrate TMB and subsequently to addition of 0.1 M HCl. To facilitate comparison between treatments, the obtained absorbances were corrected for the cell number that was determined by crystal violet staining, as described in the original protocol. […]
FIG. 5. […] Cell morphology was assessed by light microscopy (A). Markers of cell differentiation of C6 and B16 cells, galactocerebroside, GFAP and MBP were determined by cELISA and melanin and tyrosinase activity were determined as described in material and methods (B). Cyclin D3 and p53 expression were evaluated by cELISA (C, upper panels), immunocytochemistry (C, middle panel) and Western blot (C, lower panel). […]

C6 cells = assay: Cyclin D3 and p53 expression (cELISA, immunocytochemistry, Western blot), C6; type: cell-based, rat; details: 18.8 μM, 24 h (Western blot 4 h)
Text: (§1) A slightly modified method for cell-based ELISA (cELISA) by Versteeg (Versteed et al., 2000) was used to measure the expression of galactocerebroside, glial fibrilar acidic protein (GFAP), myelin basic protein (MBP), cyclin D3, p53 and p-AKT. Briefly, at the end of cultivation period cells were fixed in 4% paraformaldehyde, endogenous peroxydase was quenched with 1% H2O2 in PBS containing 0.1% Triton X-100 (PBST), and unspecific binding of antibodies blocked with PBST solution containing 10% FCS. […] The absorbance at 450 nm was measured in an automated microplate reader 15 min after incubation with peroxydase substrate TMB and subsequently to addition of 0.1 M HCl. To facilitate comparison between treatments, the obtained absorbances were corrected for the cell number that was determined by crystal violet staining, as described in the original protocol.
(§2) The detection of expression of cyclin D3 and p53 expression was performed by the immunocytochemical procedure as previously described (Mijatovic et al, 2005). The cells were cultivated in glass chamber-slides (3×10^4 cells/well) and cyclin D3 and p53 expression were detected with specific antibodies against cyclin D3 (1:1000, Santa Cruz Biotechnology, Santa Cruz, Calif.) and p53 (1:500, Santa Cruz Biotechnology, Santa Cruz, Calif.). […]

B16 cells [2] = assay: Cyclin D3 and p53 expression (cELISA, immunocytochemistry, Western blot), B16; type: cell-based, mouse; details: 18.8 μM, 24 h (Western blot 4 h)
Text: as §1, §2

CCR% e CXCR4 strains = assay: In-vitro anti-HIV activity; type: cell-based

SMILES	lethality (CD1 mice; 500 mg/kg, 24 h) [%]	lethality (CD1 mice; 1000 mg/kg, 14 days) [%]	lethality (CD1 mice; 14 days) [%]	time of death (mean±SD) (CD1 mice; 14 days) [h]	time of death (range) (CD1 mice; 14 days) [h]	MBP expression (B16 cells [1])	cyclin D3 expression (C6 cells)	p53 expression (C6 cells)	cyclin D3 expression (B16 cells [2])	p53 expression (B16 cells [2])	in-vitro anti-HIV activity compared with Saquinavir (CCR% e CXCR4 strains)
CC(C)(C)NC(=O)[C@@H]1C[C@@H]2CCCC[C@@H]2CN1C[C@@H](O)[C@H](Cc1ccccc1)NC(=O)[C@H](CC(N)=O)NC(=O)c1ccc2ccccc2n1 [Saq, Saquinavir, reference compound]	20	30	100	65 ± 58	18 to 144	–	–	–	–	–	–
CC(C)(C)NC(=O)[C@@H]1C[C@@H]2CCCC[C@@H]2CN1C[C@@H](O[N+](=O)[O-])[C@H](Cc1ccccc1)NC(=O)[C@H](CC(N)=O)NC(=O)c1ccc2ccccc2n1 [Saq-NO2, nitric ester of Saquinavir]	–	–	–	–	–	mild elevation	not considerably changed	much higher extent than Saq	not considerably changed	much higher extent than Saq	at least as high as that of Saquinavir

Source: US8563578B2, “Antitumor properties of NO modified protease inhibitors” (Onconox APS, priority 2008, dated 2013)
